Entries after “also recorded” stand apart in the source; their conditions may differ. Where two headings read alike, the source gives them in different places.
Key:
[1] = tested on: ASNSlow HGSOC patient-derived xenograft; experiment: ASNSlow HGSOC patient-derived xenograft (PDX) model; type: in vivo, NOD/SCID mice; settings: orally 100 mg/kg, BID for 39 days; p<0.0001 vs vehicle control
Experimental: The the anti-tumor effects of Compound 2 were tested in vivo in an ASNS^low HGSOC patient-derived xenograft (PDX) model using human tumor tissue that was identified through immunohistochemistry to be ASNS^low and characterized through histological phenotyping to be of a high-grade serous subtype, implanted in to NOD/SCID mice.
Compound 2 inhibits tumor growth of an ASNS^low PDX xenograft as a single agent in NOD/SCID mice (FIG. 23(b)). In this experiment, Compound 2, administered orally at a dose of 100 mg/kg, BID for 39 days inhibited tumor growth (TGI=50%, p<0.0001 for tumor volumes after treatment with Compound 2 vs vehicle control).

[2] = tested on: OVCAR-8 subcutaneous xenografts; experiment: OVCAR-8 subcutaneous xenograft; type: in vivo, athymic mice; settings: 100 mpk, twice a day, oral gavage, three weeks
Experimental: OVCAR-8 cells were implanted subcutaneously into athymic mice and allowed to grow into an established tumor. Animals were then treated with compound 2, for three weeks (100 mpk, twice a day) by oral gavage.

[3] = tested on: OVCAR-8 tumors; experiment: Glutamate:glutamine ratio in OVCAR-8 tumor lysates (mass spec); type: in vivo; settings: dosed for 1, 7 or 21 days
Experimental: OVCAR-8 tumors were dosed for 1, 7 or 21 days and then harvested from animals. Tumor lysates were analyzed by mass spec for the presence of glutamine and glutamate.

[4] = tested on: SK-OV-3 cells; experiment: Orthotopic model of ovarian cancer (SK-OV-3, intraperitoneal); type: in vivo, athymic nude mice; settings: day 21; compared to vehicle or paclitaxel alone
Experimental: SK-OV-3 cells were injected into the intraperitoneal cavity of athymic nude mice and allow to grow for 7 days. At day 7, animals were treated with the in vivo tool compound to inhibit GLS-1 and animals were monitored for clinical disease signs.

[5] = tested on: OVCAR8; experiment: Cell viability / proliferation assay (Cell Titer Glo, 72 h); type: cell-based
Experimental: (§4) Cells were allowed to settle and attach overnight. Cells plated in triplicate for each concentration and control examined. […] Cells were incubated with compound or relevant controls for 72 hours. On Day 4, 72 hours after treatment, cells were analyzed by Cell Titer Glo (PromegaG7573) per manufacturer's instructions. Plates were read in luminescence mode on a PheraStarFS plate reader. Data was collected, replicates were averaged, standard deviations calculated and analyzed through nonlinear regression analysis with four (4) parameters to generate IC50s for each cell line tested.

[6] = tested on: OVCAR8 and OVCAR420 cells; experiment: DNA damage staining and quantification (γH2AX foci); type: cell-based; settings: 48 hours
Experimental: Cells were then fixed using 4% Paraformaldehyde and permeabilized using 0.5% TritonX100. Fixed cells were stained with Anti-γH2AX, rabbit (Bethyl IHC-00059) (1:500) for 2 h at 37 C. The secondary antibody used was Alexa Fluor 546 donkey anti-rabbit (Invitrogen A10040) (1:150) simultaneously with Hoechst 33342, Trihydrochloride, Trihydrate (Invitrogen, H3570) (1:1000) for 1 h at 37 C. DNA damage was measured as a γH2AX signal per nucleus using PerkinElmer High Content Screening System Operetta with the Harmony software. First, nuclei were selected using Hoechst staining. Then, single cells were gated based on nucleus size and shape. Apoptotic and mitotic cells were excluded based on maximum Hoechst intensity in the nucleus. DNA damage foci were identified within the gated nuclei using the “find spots in Alexa 546 channel” analysis block. Finally, the total intensity of Alexa 546 within all “spots” in the nucleus, or the total number of spots in the nucleus, averaged per cell, was calculated.
GLS-1 inhibition induces oxidative stress that leads to accumulation of DNA damage. […] Moreover, we observed an accumulation of γH2AX foci, a marker of DNA damage, and the likely cause of anti-proliferative effects observed upon GLS-1 inhibition (FIG. 11).

[7] = tested on: responder cells OVCAR420, OVCAR429; experiment: Analysis of reactive oxygen species production (CM-H2DCFDA, flow cytometry); type: cell-based; settings: 1 μM, 48 hours
Experimental: One day prior to the experiment, OVCAR-8 and OVCAR420 cells were seeded in 6 well dishes (250,000 cells per well). […] The following day, an allocated well was treated with hydrogen peroxide for 20-30 minutes as a positive control for ROS generation. All wells were then stained with CM-H2DCFDA (5 μM, Life Technologies) for 30 minutes at 37° C., washed with 1×PBS, harvested by trypsinization, and re-suspended in 400 μl phenol-free RPMI medium. Cells were strained through a […] cell strainer and analyzed using a flow cytometer (LSR Fortessa).
For each condition, calculation of mean fluorescence intensity allows for the comparison of ROS accumulation between control and treated samples. Shown are responder cells: (a) OVCAR420; (b) OVCAR429, with GFP-A on the x-axis, and count on the y-axis.

[8] = tested on: OVCAR420; experiment: Analysis of glutathione levels (GSH-Glo); type: cell-based; settings: OVCAR420, 1 μM, 24 hours
Experimental: (§1) Analysis of Glutathione Levels: Cells were plated in 96-well Corning Costar 3603 at 10,000 cells/well on Day 0. Cells were allowed to settle and attach overnight. […] Cells were incubated with compound or relevant controls for 24 hours. On Day 2, 24 hours after treatment, cells were analyzed by GSH-Glo (PromegaV6912) per manufacturer's instructions. […] Duplicate wells were plated and then stained with crystal violet in order to correct for differences in cell growth as described below.
(§2) GLS-dependence is driven by addiction to glutamine-dependent, glutathione-mediated redox maintenance in OVCA responder cell lines. […] Consistent with this hypothesis, GLS-1 inhibition induced a significant decrease in intracellular glutathione and a concurrent increase in reactive oxygen species (FIGS. 7 and 8) in responder lines.

[9] = tested on: OVCAR8; experiment: Analysis of glutathione levels (GSH-Glo); type: cell-based; settings: OVCAR8, 1 μM, 24 hours
Experimental: as §1, §2

[10] = tested on: OVCAR4; experiment: Analysis of glutathione levels (GSH-Glo); type: cell-based; settings: OVCAR4 (non-responder), 24 hours
Experimental: as §1, §2

[11] = tested on: OVCAR429; experiment: Analysis of glutathione levels (GSH-Glo); type: cell-based; settings: OVCAR429, 1 μM, 24 hours
Experimental: as §1, §2

[12] = tested on: OVCAR429; experiment: Cell viability / proliferation assay (Cell Titer Glo, 72 h); type: cell-based
Experimental: as §4

[13] = tested on: OVCAR8, OVCAR429, OVCAR4, and IGROV1 cells; experiment: Metabolomics (LC-MS/MS metabolic profiling); type: cell-based; settings: 1 μM, 24 hours; muted or absent in non-responder lines
Experimental: OVCAR8 cells were plated at 3×10^6 cells per 10 cm dish and OVCAR429, IGROV1, and OVCAR4 were plated at 3.5×10^6 cells per 10 cm dish 24 hours (24 h) prior to treatment. […] On day 1 (d.1), 2 hours (2 h) prior to harvest, samples were washed with 5 mL media containing 10% dialyzed FBS. 10 mL of media was added to plates and plates were returned to the incubator for 2 h. Media was then aspirated from plates and 4 mL of 80% chilled MeOH (−80° C.) was immediately added. Plates were incubated at −80° C. for 15 minutes. Cells were then scraped with cell scraper to release cells while keeping plates on dry ice. The MeOH/cell lysate mixture was collected and transferred to conical tubes on dry ice. Tubes were centrifuged at full speed in 4° C. chilled centrifuge for 5 minutes. Supernatant was transferred to another set of conical tubes on dry ice by decanting. The remaining pellet was re-suspended in 500 μL of cold MeOH and the mixture was moved to a microcentrifuge tube. Microfuge tubes were spun at full speed for 5 minutes in 4° C. chilled microcentrifuge. […]
Differentially abundance analysis of metabolite levels was carried out using a moderated t-test function from Bioconductor's limma package (Smyth 2005). […] The normalization factor was calculated by first defining a vector, Nmed, to be the median peak area for each metabolite across a set of samples. […]

[14] = tested on: IGROV1; experiment: Cell viability / proliferation assay (Cell Titer Glo, 72 h); type: cell-based
Excerpt: (§3) Cells were allowed to settle and attach overnight.

[15] = tested on: OVCAR4; experiment: as above; type: cell-based
Excerpt: as §3

[16] = tested on: A2780; experiment: as above; type: cell-based
Excerpt: as §3

[17] = tested on: OVCAR420; experiment: cells
Experimental: Cell culture media: All cells were grown in RPMI-1640 (Gibco11875-119) with 2 mM Glutamine+10% FBS (Gibco16000-044) unless otherwise noted.
Cells were plated in black, 96-well Corning Costar 3603 at densities to allow for Log phase growth throughout the experiment (see table below) on Day 0. Cells were allowed to settle and attach overnight. Cells plated in triplicate for each concentration and control examined. […] Cells were incubated with compound or relevant controls for 72 hours. On Day 4, 72 hours after treatment, cells were analyzed by Cell Titer Glo (PromegaG7573) per manufacturer's instructions. Plates were read in luminescence mode on a PheraStarFS plate reader. Data was collected, replicates were averaged, standard deviations calculated and analyzed through nonlinear regression analysis with four (4) parameters to generate IC50s for each cell line tested.

SMILES | TGI (tumor growth inhibition) [1] [%] | tumor growth (tumor volume) [2] | glutamate:glutamine ratio in tumors [3] | combined nodule weight per animal [4] | IC50 ([5]; Homo sapiens, OVCAR-8, OVCAR8, 72 h, read-out: IC50, viability (relative to DMSO)) [nM] | response, 72 hour viability ([5]; OVCAR8) | DNA damage (γH2AX foci per nuclei) [6] | accumulation of intracellular ROS [7] | GSH levels [8] | GSH levels [9] | GSH levels [10] | GSH levels [11] | IC50 [12] [nM] | response, 72 hour viability ([12]; OVCAR429) | IC50 ([12]; OVCAR429, 72 h, read-out: IC50, viability (relative to DMSO)) [nM] | changes in metabolite levels [13] | response, 72 hour viability [14] | response, viability [15] | response, viability [16] | IC50 [17] [nM]
CNC(=O)c1cn(C[C@H](F)CCc2ccc(NC(=O)Cc3cc(OC4CC(F)(F)C4)cc(C)n3)nn2)nn1 [Compound 2, (R)-1-(4-(6-(2-(4-(3,3-difluorocyclobutoxy)-6-methylpyridin-2-yl)acetamido)pyridazin-3-yl)-2-fluorobutyl)-N-methyl-1H-1,2,3-triazole-4-carboxamide] | 50 | significant tumor growth inhibition | altered glutamine metabolism | robust reduction |  |  |  |  |  |  |  |  |  |  |  |  |  |  |  | 
O=C(Cc1cccc(OC(F)(F)F)c1)Nc1ccc(CCCCc2nnc(NC(=O)Cc3ccccn3)s2)nn1 [Compound 1, 2-(pyridin-2-yl)-N-{5-[4-(6-{2-[3-(trifluoromethoxy)phenyl]acetamido}pyridazin-3-yl)butyl]-1,3,4-thiadiazol-2-yl}acetamide] |  |  |  |  | 13 | nM sensitivity | induces DNA damage | induces an accumulation of ROS | significantly decreased | significantly decreased | does not show a significant decrease | significantly decreased | 76 | nM sensitivity | 59 | decrease in TCA cycle activity | resistant | resistant; also recorded: no response | no response | 59
